The record followed here is patent US20210040089A1, “KRAS MUTANT PROTEIN INHIBITORS” (Jacobio Pharmaceuticals Co., Ltd., priority 2019, published 2021).

Assay [1] concerns NCI-H358 cells express KRAS G12C. As to the kind of experiment: Cell growth inhibition assay (CCK-8). It counts as cell-based. The note with it: Homo sapiens, 144 h; NCI-H358, 6 days incubation. The gist of the method: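 Antiproliferative read-out: KRAS G12C-mutant NCI-H358 lung cancer cells (3000/well) exposed to compounds in RPMI 1640 with 10% FBS for 6 days at 37°C. Viability by CCK-8 (OD450) after 1.5-2 h; IC50 from 4-parameter logistic fit.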

In assay [2] the target is T1, KRAS G12C (Homo sapiens, UniProt P01116, G12C).
T1 construct: HIS-KRAS (G12C, aa 2-185, Sino biological); purchased Sino biological
T1 sequence (P01116 2-185 isoform P01116-2 G12C): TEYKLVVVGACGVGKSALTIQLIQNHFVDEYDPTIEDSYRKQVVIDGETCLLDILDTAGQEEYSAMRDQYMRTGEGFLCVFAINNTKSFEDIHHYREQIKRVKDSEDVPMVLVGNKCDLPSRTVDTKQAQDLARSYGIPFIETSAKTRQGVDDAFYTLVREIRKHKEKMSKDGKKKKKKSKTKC
As to the kind of experiment: SOS1 catalyzed nucleotide exchange assay (TR-FRET). The class given is biochemical. The note with it: GDP-loaded HIS-KRAS(G12C), 1 hour pre-incubation with compound. The gist of the method: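 EDTA-stripped, GDP-loaded His-KRAS G12C (aa 2-185; 3 nM final) preincubated 1 h with compound, then SOS1 ExD (aa 564-1049; 2 μM) and BODIPY-FL GTP (80 nM) added for 4 h at 25 °C. TR-FRET via anti-His Tb cryptate (515/486 nm ratio); IC50 from 4-parameter logistic fit.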
On the technique in general: In TR-FRET formats the signal depends on donor and acceptor labels being close together.

Assay [3] relates to NCI-H1373 cells. In words: NCI-H1373 xenograft model. The class given is in vivo, female BALB/c mice. The settings on record: for TGI % / Tumor volume at the end (Day 22): Day 22. Here is the method:
4. NCI-H1373 xenograft model
NCI-H1373 cells (5.0E+06 cells) were injected subcutaneously into the right flank of female BALB/c mice (6-8 weeks) in a mixture with Matrigel (BD Bioscience). Mice were monitored daily and caliper measurements began when tumors became visible. Tumor volume was calculated by measuring two perpendicular diameters using the following formula: (L*w^2)/2 in which L and w refer to the length and width tumor diameter, respectively. When the average tumor volume reached 150-200 mm^3, mice were grouped (n=6/group) and treated with compounds. Tumor volume and mice weight was measured twice a week during treatment (˜3 weeks). Tumor growth inhibition rates were calculated by TGI %=(1−(Vt−Vt0)/(Vc−Vc0))*100%, where Vc, Vt are the mean tumor volume of control and treated groups at the end of the study, and Vc0 and Vt0 are the mean tumor volume of control and treated groups at the start.

The test system of assay [4] is Phospho-ERK1/2(THR202/TYR204) in NCI-H358 cells express KRAS G12C. As to the kind of experiment: Phospho-ERK1/2(THR202/TYR204) HTRF assay. The settings on record: Homo sapiens; NCI-H358, 2 hours incubation; read-out: p-ERK inhibition in NCI-H358 IC50. The class given is cell-based. An outline of the steps:
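Compounds applied to attached cells for 2 h at 37 °C in RPMI 1640 with 0.1% FBS. Lysate phospho-ERK1/2 detected by HTRF after 4 h antibody incubation at 25 °C; IC50 from 4-parameter logistic fit.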

Compound `C=C(F)C(=O)N1CCN(c2nc(OCC3(CN(C)C)CC3)nc3c2CCN(c2cccc4cccc(C)c24)C3)C[C@@H]1CC#N` [Compound 83, (S)-2-(4-(2-((1-((dimethylamino)methyl)cyclopropyl)methoxy)-7-(8-methylnaphthalen-1-yl)-5,6,7,8-tetrahydropyrido[3,4-d]pyrimidin-4-yl)-1-(2-fluoroacryloyl)piperazin-2-yl)acetonitrile] came in with an IC50 in assay [1] of 0.116 µM. Moreover, the IC50 in assay [2] turned out to be 0.0039 µM. In assay [3] (Table 2, 10 mg/kg, BID), the TGI % was determined as 89.4%, the “Tumor volume at the end (Day 22)” value is listed as 374 mm^3 and the “Tumor volume at the start” value is reported as 191 mm^3. Also, the IC50 in assay [4] came to 0.19 µM.
On to `C=C(F)C(=O)N1CCN(c2nc(OCC3CCCN3C)nc3c2CCN(c2cccc4cccc(Cl)c24)C3)C[C@@H]1CC#N` (some centres unmarked) [MRTX 849, MRTX849, reference compound], for which, in assay [3] (Table 2, 10 mg/kg, QD), the TGI % is 79.0% and the “Tumor volume at the end (Day 22)” value is reported as 553 mm^3. Besides, in assay [3] (Table 3, 10 mg/kg, QD), the TGI % was 86.3%, the “Tumor volume at the end (Day 22)” value was 355 mm^3 and the “Tumor volume at the start” value amounted to 188 mm^3.
For the compound `CN(C)CC1(COc2nc3c(c(N4CCN(C(=O)/C=C/CF)[C@@H](CC#N)C4)n2)CCN(c2cccc4cccc(Cl)c24)C3)CC1` [Compound 84, (S,E)-2-(4-(7-(8-chloronaphthalen-1-yl)-2-((1-((dimethylamino)methyl)cyclopropyl)methoxy)-5,6,7,8-tetrahydropyrido[3,4-d]pyrimidin-4-yl)-1-(4-fluorobut-2-enoyl)piperazin-2-yl)acetonitrile], the IC50 in assay [1] is 0.0243 µM; in assay [2], 0.00158 µM; in assay [4], 0.0802 µM.
Consider `C=CC(=O)N1CCN(c2nc(OCC3(CN4CCCC4)CCC3)nc3c2CCN(c2cccc4ccccc24)C3)CC1CC#N` (centres unmarked) [Compound 44, 2-(1-acryloyl-4-(7-(naphthalen-1-yl)-2-((1-(pyrrolidin-1-ylmethyl)cyclobutyl)methoxy)-5,6,7,8-tetrahydropyrido[3,4-d]pyrimidin-4-yl)piperazin-2-yl)acetonitrile], for which the figures for the IC50 in assay [1], in assay [2] and in assay [4] were 0.742 µM, 0.0332 µM and 0.22 µM, respectively.
Regarding `C=CC(=O)N1CCN(c2nc(OCC3(CN(C)C)CC3)nc3c2CCN(c2cccc4ncsc24)C3)CC1CC#N` (centres unmarked) [Compound 54, 2-(1-acryloyl-4-(7-(benzo[d]thiazol-7-yl)-2-((1-((dimethylamino)methyl)cyclopropyl)methoxy)-5,6,7,8-tetrahydropyrido[3,4-d]pyrimidin-4-yl)piperazin-2-yl)acetonitrile], the results for the IC50 in assay [1], in assay [2] and in assay [4] were over 1 µM, 0.0828 µM and over 0.5 µM, respectively.
As to `C=CC(=O)N1CCN(c2nc(OC(C)C3(CN(C)C)CC3)nc3c2CCN(c2cccc4cccc(C)c24)C3)CC1CC#N` (centres unmarked) [Compound 57, 2-(1-acryloyl-4-(2-(1-(1-((dimethylamino)methyl)cyclopropyl)ethoxy)-7-(8-methylnaphthalen-1-yl)-5,6,7,8-tetrahydropyrido[3,4-d]pyrimidin-4-yl)piperazin-2-yl)acetonitrile], the half-maximal inhibitory concentration (IC50) in assay [1] turned out to be 0.522 µM; in assay [2], 0.0281 µM; in assay [4], 0.296 µM.
As for `C=CC(=O)N1CCN(c2nc(OCC3CCCCC3N(C)C)nc3c2CCN(c2cccc4ccccc24)C3)CC1CC#N` (centres unmarked) [Compound 18, 2-(1-acryloyl-4-(2-((2-(dimethylamino)cyclohexyl)methoxy)-7-(naphthalen-1-yl)-5,6,7,8-tetrahydropyrido[3,4-d]pyrimidin-4-yl)piperazin-2-yl)acetonitrile], the IC50 was determined as 0.507 µM in assay [1], 0.428 µM in assay [2] and 0.879 µM in assay [4].
Take `C=CC(=O)N1CCN(c2nc(OCC3CCCC(N(C)C)C3)nc3c2CCN(c2cccc4cccc(C)c24)C3)CC1CC#N` (centres unmarked) [Compound 5, 2-(1-acryloyl-4-(2-((3-(dimethylamino)cyclohexyl)methoxy)-7-(8-methylnaphthalen-1-yl)-5,6,7,8-tetrahydropyrido[3,4-d]pyrimidin-4-yl)piperazin-2-yl)acetonitrile]: the half-maximal inhibitory concentration (IC50) in assay [1] amounted to 0.174 µM; in assay [2], 0.0196 µM; in assay [4], 0.33 µM.
On the same counts, the results for `C=CC(=O)N1CCN(c2nc(OCC3(CN4CCC4)CC3)nc3c2CCN(c2cccc4cccc(C)c24)C3)CC1CC#N` (centres unmarked) [Compound 43, 2-(1-acryloyl-4-(2-((1-(azetidin-1-ylmethyl)cyclopropyl)methoxy)-7-(8-methylnaphthalen-1-yl)-5,6,7,8-tetrahydropyrido[3,4-d]pyrimidin-4-yl)piperazin-2-yl)acetonitrile] are 0.135 µM, 0.00505 µM and 0.0718 µM.
`C=CC(=O)N1CCN(c2nc(OCC3CCCC3N(C)C)nc3c2CCN(c2cccc(Cl)c2Cl)C3)CC1CC#N` (centres unmarked) [Compound 25, 2-(1-acryloyl-4-(7-(2,3-dichlorophenyl)-2-((2-(dimethylamino)cyclopentyl)methoxy)-5,6,7,8-tetrahydropyrido[3,4-d]pyrimidin-4-yl)piperazin-2-yl)acetonitrile]: the IC50 came to 0.165 µM in assay [1], 0.0302 µM in assay [2] and 0.267 µM in assay [4].
`C=C(F)C(=O)N1CCN(c2nc(OCC3(CN(C)C)CC3)nc3c2CCN(c2cccc4cccc(C)c24)C3)CC1CC#N` (centres unmarked) [Compound 78, 2-(4-(2-((1-((dimethylamino)methyl)cyclopropyl)methoxy)-7-(8-methylnaphthalen-1-yl)-5,6,7,8-tetrahydropyrido[3,4-d]pyrimidin-4-yl)-1-(2-fluoroacryloyl)piperazin-2-yl)acetonitrile]: the IC50 in assay [1] came out at 0.208 µM; in assay [2], 0.00836 µM; in assay [4], 0.208 µM.
In the case of `Cc1cccc2cccc(N3CCc4c(nc(OCC5(CN6CCCC6)CC5)nc4N4CCN(C(=O)/C=C/CN(C)C)C(CC#N)C4)C3)c12` (centres unmarked) [Compound 86, (E)-2-(1-(4-(dimethylamino)but-2-enoyl)-4-(7-(8-methylnaphthalen-1-yl)-2-((1-(pyrrolidin-1-ylmethyl)cyclopropyl)methoxy)-5,6,7,8-tetrahydropyrido[3,4-d]pyrimidin-4-yl)piperazin-2-yl)acetonitrile], the IC50 was 0.103 µM in assay [1], over 0.5 µM in assay [2] and 0.131 µM in assay [4].
On the same counts, the results for `C=C(F)C(=O)N1CCN(c2nc(OCC3(CN4CCCC4)CC3)nc3c2CCN(c2cccc4cccc(C)c24)C3)CC1CC#N` (centres unmarked) [Compound 72, 2-(1-(2-fluoroacryloyl)-4-(7-(8-methylnaphthalen-1-yl)-2-((1-(pyrrolidin-1-ylmethyl)cyclopropyl)methoxy)-5,6,7,8-tetrahydropyrido[3,4-d]pyrimidin-4-yl)piperazin-2-yl)acetonitrile] are 0.379 µM, 0.0118 µM and 0.215 µM.
On to `C=CC(=O)N1CCN(c2nc(OC[C@@H]3CC[C@H](N(C)C)C3)nc3c2CCN(c2cccc4cccc(C)c24)C3)CC1CC#N` (stereo partly drawn) [Compound 22, 2-(1-acryloyl-4-(2-(((1R,3S)-3-(dimethylamino)cyclopentyl)methoxy)-7-(8-methylnaphthalen-1-yl)-5,6,7,8-tetrahydropyrido[3,4-d]pyrimidin-4-yl)piperazin-2-yl)acetonitrile], for which the values for the IC50 in assay [1], in assay [2] and in assay [4] were 0.0652 µM, 0.0107 µM and 0.0966 µM, respectively.
For the compound `C=C(F)C(=O)N1CCN(c2nc(OCC3(CN4CC(N(C)C)C4)CC3)nc3c2CCN(c2cccc4cccc(C)c24)C3)CC1CC#N` (centres unmarked) [Compound 75, 2-(4-(2-((1-((3-(dimethylamino)azetidin-1-yl)methyl)cyclopropyl)methoxy)-7-(8-methylnaphthalen-1-yl)-5,6,7,8-tetrahydropyrido[3,4-d]pyrimidin-4-yl)-1-(2-fluoroacryloyl)piperazin-2-yl)acetonitrile], the IC50 in assay [1] was determined as 0.235 µM; in assay [2] it was 0.00727 µM; in assay [4], 0.405 µM.
On the same counts, the results for `C=CC(=O)N1CCN(c2nc(OCC3(CN4CCCC4)CC3)nc3c2CCN(c2cccc(Cl)c2Cl)C3)CC1CC#N` (centres unmarked) [Compound 35, 2-(1-acryloyl-4-(7-(2,3-dichlorophenyl)-2-((1-(pyrrolidin-1-ylmethyl)cyclopropyl)methoxy)-5,6,7,8-tetrahydropyrido[3,4-d]pyrimidin-4-yl)piperazin-2-yl)acetonitrile] are 0.106 µM, 0.0179 µM and 0.0853 µM.

As usually defined, the IC50 is the concentration that gives 50% inhibition.
